Tests used:
Integrin alpha-V/beta-3 = Integrin alpha-V/beta-3 (Homo sapiens, UniProt P05106+P06756); assay: Inhibition of binding to human alpha V beta3; assay type: protein-complex assay
Homo sapiens = species on record: Homo sapiens; assay: Inhibitory concentration required for 50% inhibition of the rate of ADP-stimulated platelet aggregation; assay type: functional, organism-based
[1] = Compound was tested for plasma half life when administered in dog perorally (1 mg/kg) and intravenously (0.2 mg/kg); assay type: ADME, organism-based, Canis lupus familiaris
[2] = Compound was tested for its ability of plasma clearance when administered in dog perorally (1 mg/kg) and intravenously (0.2 mg/kg); assay type: ADME, organism-based, Canis lupus familiaris; details: iv
[3] = Oral bioavailability in dog (1 mg/kg p.o. and 0.2 mg/kg i.v.); assay type: ADME, organism-based, Canis lupus familiaris; details: in vivo
[4] = Partition coefficient (logP); assay type: physicochemical; details: octanol/water

Integrin alpha-V/beta-3, sequence (P05106 27-788 limits assumed): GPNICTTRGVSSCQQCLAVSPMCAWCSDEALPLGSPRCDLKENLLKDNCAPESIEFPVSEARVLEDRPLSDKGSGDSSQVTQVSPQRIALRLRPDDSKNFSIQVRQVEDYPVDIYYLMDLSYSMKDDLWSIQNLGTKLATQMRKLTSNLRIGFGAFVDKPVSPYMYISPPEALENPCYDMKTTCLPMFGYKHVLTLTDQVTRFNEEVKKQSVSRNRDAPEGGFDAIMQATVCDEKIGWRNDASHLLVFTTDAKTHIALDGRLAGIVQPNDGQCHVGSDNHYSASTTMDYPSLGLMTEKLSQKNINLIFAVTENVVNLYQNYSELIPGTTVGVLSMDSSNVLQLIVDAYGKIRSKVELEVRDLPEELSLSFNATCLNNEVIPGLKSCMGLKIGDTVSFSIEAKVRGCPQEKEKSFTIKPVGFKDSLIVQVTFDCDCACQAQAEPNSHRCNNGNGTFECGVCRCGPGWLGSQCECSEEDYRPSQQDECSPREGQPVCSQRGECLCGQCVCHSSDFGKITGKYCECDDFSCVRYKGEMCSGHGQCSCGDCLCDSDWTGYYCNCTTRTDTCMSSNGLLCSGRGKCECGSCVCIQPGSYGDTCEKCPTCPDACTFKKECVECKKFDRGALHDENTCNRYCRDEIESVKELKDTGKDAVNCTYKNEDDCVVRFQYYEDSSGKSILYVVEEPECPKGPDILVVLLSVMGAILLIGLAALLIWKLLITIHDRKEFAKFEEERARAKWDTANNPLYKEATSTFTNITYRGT
Integrin alpha-V/beta-3, sequence (P06756 31-889 limits assumed): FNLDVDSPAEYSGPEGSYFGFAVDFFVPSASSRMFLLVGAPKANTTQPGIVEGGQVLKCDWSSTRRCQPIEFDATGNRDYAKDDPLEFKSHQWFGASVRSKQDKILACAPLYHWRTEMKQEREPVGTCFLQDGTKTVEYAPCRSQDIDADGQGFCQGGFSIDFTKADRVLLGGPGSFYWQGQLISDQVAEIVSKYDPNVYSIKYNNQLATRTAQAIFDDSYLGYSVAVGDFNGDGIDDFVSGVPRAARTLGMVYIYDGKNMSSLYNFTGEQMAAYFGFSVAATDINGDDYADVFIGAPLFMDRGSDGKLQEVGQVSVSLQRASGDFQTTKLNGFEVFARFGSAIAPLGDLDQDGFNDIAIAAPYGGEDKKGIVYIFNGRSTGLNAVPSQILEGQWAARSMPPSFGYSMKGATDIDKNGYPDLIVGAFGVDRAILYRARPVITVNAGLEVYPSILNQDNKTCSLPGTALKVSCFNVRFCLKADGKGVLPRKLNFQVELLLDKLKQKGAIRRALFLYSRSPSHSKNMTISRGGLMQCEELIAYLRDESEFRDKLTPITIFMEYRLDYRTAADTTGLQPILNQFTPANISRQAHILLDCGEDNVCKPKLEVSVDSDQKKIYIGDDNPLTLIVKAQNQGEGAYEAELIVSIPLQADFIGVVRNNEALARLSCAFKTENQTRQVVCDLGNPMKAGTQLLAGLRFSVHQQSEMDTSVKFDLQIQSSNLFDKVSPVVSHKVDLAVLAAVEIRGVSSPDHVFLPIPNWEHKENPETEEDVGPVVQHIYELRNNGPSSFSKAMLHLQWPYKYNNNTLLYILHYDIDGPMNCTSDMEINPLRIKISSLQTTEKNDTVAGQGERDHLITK
Integrin alpha-V/beta-3, sequence (P06756 891-1048 limits assumed): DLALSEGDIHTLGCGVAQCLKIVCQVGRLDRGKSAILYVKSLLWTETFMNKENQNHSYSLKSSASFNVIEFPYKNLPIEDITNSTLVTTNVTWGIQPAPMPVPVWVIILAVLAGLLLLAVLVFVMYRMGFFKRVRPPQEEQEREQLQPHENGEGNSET

IC50 (Integrin alpha-V/beta-3)	IC50 (Homo sapiens)	half-life [1]	clearance [2]	bioavailability [3]	logP [4]	SMILES
0.67 nM						O=C(O)C[C@H](NC(=O)CNC(=O)CCCc1ccc2c(n1)NCCC2)c1cnc2ccccc2c1
48 nM						O=C(O)CCNC(=O)CNC(=O)CCCc1ccc2c(n1)NCCC2
13.1 nM	> 10000 nM	1.2 h	37 mL/min/kg	25%	-0.24	O=C(O)C[C@H](NC(=O)CCCCc1ccc2c(n1)NCCC2)c1ccc2nc(O)oc2c1
5.8 nM						O=C(O)C[C@H](NC(=O)CCCCCCc1ccc2c(n1)NCCC2)c1cnc2ccccc2c1
5.9 nM						O=C(O)C[C@H](NC(=O)CCCCCc1ccc2c(n1)NCCC2)c1cnc2ccccc2c1
23 nM	> 10000 nM	5.5 h	2 mL/min/kg	81%	0.29	O=C(O)C[C@H](NC(=O)CCCCc1ccc2c(n1)NCCC2)c1cccc(F)c1
3 nM	> 10000 nM	2.5 h	1.2 mL/min/kg	99%	0.53	O=C(O)C[C@H](NC(=O)CCCCc1ccc2c(n1)NCCC2)c1ccc2c(c1)OCC2
1.6 nM	4440 nM	2.4 h	5.8 mL/min/kg	65%	0.76	O=C(O)C[C@H](NC(=O)CCCCc1ccc2c(n1)NCCC2)c1cnc2ccccc2c1
1.5 nM	> 10000 nM	2.4 h	1.2 mL/min/kg	94%	0.47	O=C(O)C[C@H](NC(=O)CCCCc1ccc2c(n1)NCCC2)c1ccc2c(c1)OCO2
500 nM						O=C(O)CCNC(=O)CCCCc1ccc2c(n1)NCCC2
3.3 nM	> 10000 nM	2.4 h	26 mL/min/kg	10%	-1.21	O=C(O)C[C@H](NC(=O)CCCCc1ccc2c(n1)NCCC2)c1cncnc1

Reference: ChEMBL document CHEMBL1135308, “Non-peptide alpha(v)beta(3) antagonists. Part 4: potent and orally bioavailable chain-shortened RGD mimetics” (Bioorg Med Chem Lett, 2002)
